Experimental data as given in the NIST ThermoML archive (doi:10.1021/je050050p).

Conditions: Liquid, Vibrating tube method

CN(C)C=O [dimethylformamide]
Conditions	mass density [kg/m3]
313.12 K, 1008 kPa	930.41
313.12 K, 2010 kPa	931.09
313.12 K, 3012 kPa	931.73
313.12 K, 4008 kPa	932.38
313.12 K, 5004 kPa	933.04
313.12 K, 6002 kPa	933.68
313.12 K, 7002 kPa	934.32
313.12 K, 8004 kPa	934.97
313.12 K, 9000 kPa	935.62
313.12 K, 10004 kPa	936.27
313.12 K, 11004 kPa	936.89
313.12 K, 12004 kPa	937.51
313.12 K, 13005 kPa	938.14
313.12 K, 14007 kPa	938.78
313.12 K, 15002 kPa	939.37
313.12 K, 16012 kPa	940
313.12 K, 17009 kPa	940.59
313.12 K, 18015 kPa	941.19
313.12 K, 19010 kPa	941.79
313.12 K, 20013 kPa	942.42
313.12 K, 21009 kPa	942.99
313.12 K, 22011 kPa	943.58
313.12 K, 23019 kPa	944.17
313.12 K, 24013 kPa	944.75
313.12 K, 25011 kPa	945.35
323.06 K, 1014 kPa	920.89
323.06 K, 2007 kPa	921.59
323.06 K, 3026 kPa	922.27
323.06 K, 4006 kPa	922.95
323.06 K, 5016 kPa	923.62
323.06 K, 6010 kPa	924.3
323.06 K, 7006 kPa	924.99
323.06 K, 8010 kPa	925.64
323.06 K, 9012 kPa	926.32
323.06 K, 10014 kPa	926.99
323.06 K, 11011 kPa	927.65
323.06 K, 12013 kPa	928.31
323.06 K, 13007 kPa	928.97
323.06 K, 14011 kPa	929.62
323.06 K, 15008 kPa	930.29
323.06 K, 16014 kPa	930.92
323.06 K, 17004 kPa	931.54
323.06 K, 18006 kPa	932.19
323.06 K, 19006 kPa	932.82
323.06 K, 20005 kPa	933.44
323.06 K, 21002 kPa	934.07
323.06 K, 22013 kPa	934.7
323.06 K, 23015 kPa	935.31
323.06 K, 24008 kPa	935.92
323.06 K, 25012 kPa	936.53
333 K, 1008 kPa	911.34
333 K, 2018 kPa	912.08
333 K, 3006 kPa	912.78
333 K, 4005 kPa	913.51
333 K, 5005 kPa	914.23
333 K, 6008 kPa	914.97
333 K, 7003 kPa	915.68
333 K, 8009 kPa	916.39
333 K, 9010 kPa	917.11
333 K, 10008 kPa	917.81
333 K, 11008 kPa	918.51
333 K, 12008 kPa	919.2
333 K, 13013 kPa	919.9
333 K, 14006 kPa	920.57
333 K, 15007 kPa	921.24
333 K, 16011 kPa	921.92
333 K, 17019 kPa	922.59
333 K, 18010 kPa	923.27
333 K, 19004 kPa	923.91
333 K, 20012 kPa	924.58
333 K, 21005 kPa	925.24
333 K, 22005 kPa	925.88
333 K, 23014 kPa	926.52
333 K, 24009 kPa	927.19
333 K, 25009 kPa	927.83
342.86 K, 1028 kPa	901.52
342.86 K, 2020 kPa	902.3
342.86 K, 3015 kPa	903.09
342.86 K, 4002 kPa	903.84
342.86 K, 5035 kPa	904.63
342.86 K, 6026 kPa	905.39
342.86 K, 7013 kPa	906.13
342.86 K, 8017 kPa	906.89
342.86 K, 9024 kPa	907.66
342.86 K, 10012 kPa	908.38
342.86 K, 11048 kPa	909.14
342.86 K, 11999 kPa	909.83
342.86 K, 13018 kPa	910.6
342.86 K, 14029 kPa	911.32
342.86 K, 15007 kPa	912.03
342.86 K, 15994 kPa	912.71
342.86 K, 17041 kPa	913.47
342.86 K, 18012 kPa	914.16
342.86 K, 19006 kPa	914.85
342.86 K, 20042 kPa	915.55
342.86 K, 21025 kPa	916.22
342.86 K, 22008 kPa	916.9
342.86 K, 23079 kPa	917.63
342.86 K, 24008 kPa	918.25
342.86 K, 25017 kPa	918.93
352.8 K, 1040 kPa	891.76
352.8 K, 2009 kPa	892.57
352.8 K, 3011 kPa	893.41
352.8 K, 4020 kPa	894.22
352.8 K, 5050 kPa	895.06
352.8 K, 6060 kPa	895.78
352.8 K, 6996 kPa	896.53
352.8 K, 8008 kPa	897.34
352.8 K, 9034 kPa	898.16
352.8 K, 10019 kPa	898.93
352.8 K, 11043 kPa	899.73
352.8 K, 11998 kPa	900.45
352.8 K, 13028 kPa	901.24
352.8 K, 14015 kPa	901.99
352.8 K, 15028 kPa	902.74
352.8 K, 16000 kPa	903.48
352.8 K, 17011 kPa	904.23
352.8 K, 17999 kPa	904.96
352.8 K, 19044 kPa	905.73
352.8 K, 20050 kPa	906.43
352.8 K, 21038 kPa	907.16
352.8 K, 21955 kPa	907.8
352.8 K, 23009 kPa	908.57
352.8 K, 23996 kPa	909.27
352.8 K, 25056 kPa	910.04
362.67 K, 1058 kPa	882.04
362.67 K, 2038 kPa	882.89
362.67 K, 3044 kPa	883.77
362.67 K, 4027 kPa	884.62
362.67 K, 5068 kPa	885.54
362.67 K, 6036 kPa	886.37
362.67 K, 7025 kPa	887.22
362.67 K, 8027 kPa	888.03
362.67 K, 9045 kPa	888.9
362.67 K, 10021 kPa	889.71
362.67 K, 11024 kPa	890.55
362.67 K, 11996 kPa	891.3
362.67 K, 13061 kPa	892.19
362.67 K, 14027 kPa	892.95
362.67 K, 15025 kPa	893.73
362.67 K, 15987 kPa	894.49
362.67 K, 17050 kPa	895.32
362.67 K, 18009 kPa	896.08
362.67 K, 19041 kPa	896.85
362.67 K, 20032 kPa	897.62
362.67 K, 21035 kPa	898.36
362.67 K, 22014 kPa	899.1
362.67 K, 23018 kPa	899.87
362.67 K, 24007 kPa	900.58
362.67 K, 25016 kPa	901.35
